According to patent US9630931B2, “Pharmaceutically active pyrazine derivatives” (Sentinel Oncology Limited, priority 2011, dated 2017):
Structures can show the parent of a compound that is named as a salt.

Tests used:
Chk-1 kinase = Chk-1 kinase (Homo sapiens (Human), UniProt O14757); assay: Chk-1 kinase inhibiting activity (33P-ATP radiometric filter assay, CHKtide substrate); assay type: biochemical; conditions: recombinant full length GST-tagged CHK-1 0.5 nM, CHKtide 20 μM, 120 minutes at room temperature; read-out: IC50 against Chk-1 kinase
Experimental: The compounds of the invention were tested for activity against Chk-1 kinase using the materials and protocols set out below.
Base Reaction buffer: 20 mM Hepes (pH 7.5), 10 mM MgCl2, 1 mM EGTA, 0.02% Brij35, 0.02 mg/ml BSA, 0.1 mM Na3VO4, 2 mM DTT, 1% DMSO
Required cofactors are added individually to each kinase reaction
(i) Prepare indicated substrate in freshly prepared Base Reaction Buffer
(ii) Deliver any required cofactors to the substrate solution above
(iii) Deliver indicated kinase into the substrate solution and gently mix
(iv) Deliver compounds in DMSO into the kinase reaction mixture
(v) Deliver ^33P-ATP (specific activity 0.01 μCi/μl final) into the reaction mixture to initiate the reaction.
(vi) Incubate kinase reaction for 120 minutes at room temperature
(vii) Reactions are spotted onto P81 ion exchange paper (Whatman #3698-915)
(viii) Wash filters extensively in 0.1% phosphoric acid.
(ix) Dry filters and measure counts in scintillation counter
Recombinant full length construct, N-terminal GST tagged, purified from insect cells.
No special measures were taken to activate this kinase.
Final concentration in assay=0.5 nM
Peptide sequence: [[…]]
Final concentration in assay=20 μM
No additional cofactors are added to the reaction mixture
From the results obtained by following the above protocol, the IC50 values against Chk-1 kinase of a number of the compounds of the Examples were determined and these are shown in Table 3.

MV4-11 cells = assay: Inhibition of cell growth in MV4-11 cells (Alamar blue, 72 h); assay type: cell-based; conditions: Homo sapiens, 72 h incubation
Experimental: (§1) Studies were carried out to test the effect of compounds on the inhibition of cell growth in MOLM-13 and MV4-11 cells.
(§2) The following protocol was used:
(§3) (a) Cells were seeded in 96-well plates at cell densities of 2500/well (MOLM-13) and 10,000/well (MV4-11). Cells were then incubated overnight prior to addition of compound or vehicle control.
(§4) (b) Test compounds were prepared from 10 mM DMSO stocks to give a final concentration range of 10 μM, 3 μM, 1 μM, 0.3 μM, […], 0.03 μM, 0.01 μM, […] vehicle control. The DMSO content was constant at 0.1%.
(§5) (c) Test compounds were incubated with the cells for 72 h at 37° C. 5% CO2 in a humidified atmosphere.
(§6) (d) Alamar blue 10% (v/v) was then added and incubated for a further 4 h, and fluorescent product detected using the BMG FLUOstar plate reader.
(§7) (e) Media only background values were subtracted and the data analysed using a 4-parameter logistic equation in GraphPad Prism.

MOLM-13 cells = assay: Inhibition of cell growth in MOLM-13 cells (Alamar blue, 72 h); assay type: cell-based; conditions: Homo sapiens, 72 h incubation
Experimental: as §1, §2, §3, §4, §5, §6, §7

Chk-1 kinase, sequence (O14757 whole entry): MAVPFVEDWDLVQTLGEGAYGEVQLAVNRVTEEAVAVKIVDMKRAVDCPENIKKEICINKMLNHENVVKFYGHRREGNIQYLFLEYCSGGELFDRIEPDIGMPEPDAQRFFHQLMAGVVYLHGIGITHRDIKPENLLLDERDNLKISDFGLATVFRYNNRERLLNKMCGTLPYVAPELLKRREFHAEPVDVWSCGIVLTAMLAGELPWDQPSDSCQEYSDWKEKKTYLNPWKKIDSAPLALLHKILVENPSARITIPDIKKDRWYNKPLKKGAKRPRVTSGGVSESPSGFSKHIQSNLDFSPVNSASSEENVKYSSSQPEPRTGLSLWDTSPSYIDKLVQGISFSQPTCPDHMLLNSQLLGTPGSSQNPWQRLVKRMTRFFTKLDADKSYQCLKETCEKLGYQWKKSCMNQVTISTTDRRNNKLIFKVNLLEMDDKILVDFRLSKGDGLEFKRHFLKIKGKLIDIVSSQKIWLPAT

| SMILES | IC50 (Chk-1 kinase) | IC50 (MV4-11 cells) | IC50 (MOLM-13 cells) |
| --- | --- | --- | --- |
| COc1cc(CCNCC2CCNCC2)c(Cl)cc1NC(=O)Nc1cnc(C#N)cn1 [Example 1, 1-(5-Chloro-2-methoxy-4-{2-[(piperidin-4-ylmethyl)-amino]-ethyl}-phenyl)-3-(5-cyano-pyrazin-2-yl)-urea hydrochloride] | 0.1 nM | 386 nM | 240 nM |
| COc1cc(CCNCC2CNCCO2)c(Cl)cc1NC(=O)Nc1cnc(C#N)cn1 (centres unmarked) [Example 2, 1-(5-Chloro-2-methoxy-4-{2-[(morpholin-2-ylmethyl)-amino]-ethyl}-phenyl)-3-(5-cyano-pyrazin-2-yl)-urea hydrochloride] | 0.09 nM | 209 nM | 26 nM |
| COc1cc(CCNC[C@@H]2CNCCO2)c(Cl)cc1NC(=O)Nc1cnc(C#N)cn1 [Example 3, 1-(5-Chloro-2-methoxy-4-{2-[((R)-1-morpholin-2-ylmethyl)-amino]-ethyl}-phenyl)-3-(5-cyano-pyrazin-2-yl)-urea hydrochloride] | 0.14 nM | 173 nM | 81 nM |
| COc1cc(CCNC[C@H]2CNCCO2)c(Cl)cc1NC(=O)Nc1cnc(C#N)cn1 [Example 4, 1-(5-Chloro-2-methoxy-4-{2-[((S)-1-morpholin-2-ylmethyl)-amino]-ethyl}-phenyl)-3-(5-cyano-pyrazin-2-yl)-urea hydrochloride] | 0.05 nM | 111 nM | 49 nM |
| COc1cc(CCNCCN2CCOCC2)c(Cl)cc1NC(=O)Nc1cnc(C#N)cn1 [Example 7, 1-{5-Chloro-2-methoxy-4-[2-(2-morpholin-4-yl-ethylamino)-ethyl]-phenyl}-3-(5-cyano-pyrazin-2-yl)-urea hydrochloride] | 0.8 nM | 295 nM | 113 nM |
| CC(C)Oc1cc(CCNCCN2CCOCC2)c(Cl)cc1NC(=O)Nc1cnc(C#N)cn1 [Example 8, 1-{5-Chloro-2-isopropoxy-4-[2-(2-morpholin-4-yl-ethylamino)-ethyl]-phenyl}-3-(5-cyano-pyrazin-2-yl)-urea hydrochloride] | 0.75 nM | 38 nM | 28 nM |
| COc1cc(CCNCCN2CCN(C)CC2)c(Cl)cc1NC(=O)Nc1cnc(C#N)cn1 [Example 9, 1-(5-Chloro-2-methoxy-4-{2-[2-(4-methyl-piperazin-1-yl)-ethylamino]-ethyl}-phenyl)-3-(5-cyano-pyrazin-2-yl)-urea hydrochloride] | 0.69 nM | 56 nM | 29 nM |
| COc1cc(CCN[C@H](C)C2CCN(S(C)(=O)=O)CC2)c(Cl)cc1NC(=O)Nc1cnc(C#N)cn1 [Example 13, 1-(5-Chloro-4-{2-[(R)-1-(1-methanesulfonyl-piperidin-4-yl)-ethylamino]-ethyl}-2-methoxy-phenyl)-3-(5-cyano-pyrazin-2-yl)-urea hydrochloride] | 0.27 nM | – | – |
| COc1cc(CCNC[C@H]2CN(C(=O)C3CC3)CCO2)c(Cl)cc1NC(=O)Nc1cnc(C#N)cn1 [Example 14, 1-(5-Chloro-4-{2-[((S)-4-cyclopropanecarbonyl-morpholin-2-ylmethyl)-amino]-ethyl}-2-methoxy-phenyl)-3-(5-cyano-pyrazin-2-yl)-urea hydrochloride] | 0.4 nM | 202 nM | – |
| COc1cc(CCNC(=O)[C@H]2CNCCO2)c(Cl)cc1NC(=O)Nc1cnc(C#N)cn1 [Example 15, (R)-Morpholine-2-carboxylic acid (2-{2-chloro-4-[3-(5-cyano-pyrazin-2-yl)-ureido]-5-methoxy-phenyl}-ethyl)-amide hydrochloride] | 20 nM | – | – |
| COc1cc(CCNC(=O)CN2CCOCC2)c(Cl)cc1NC(=O)Nc1cnc(C#N)cn1 [Example 16, N-(2-{2-Chloro-4-[3-(5-cyano-pyrazin-2-yl)-ureido]-5-methoxy-phenyl}-ethyl)-2-morpholin-4-yl-acetamide hydrochloride] | 76 nM | – | – |
| COc1cc(CCNC(=O)CN2CCN(C)CC2)c(Cl)cc1NC(=O)Nc1cnc(C#N)cn1 [Example 17, N-(2-{2-Chloro-4-[3-(5-cyano-pyrazin-2-yl)-ureido]-5-methoxy-phenyl}-ethyl)-2-(4-methyl-piperazin-1-yl)-acetamide hydrochloride] | 13 nM | – | – |
| COc1cc(CCN[C@@H](C)CN2CCOCC2)c(Cl)cc1NC(=O)Nc1cnc(C#N)cn1 [Example 18, 1-{5-Chloro-2-methoxy-4-[2-((S)-1-methyl-2-morpholin-4-yl-ethylamino)-ethyl]-phenyl}-3-(5-cyano-pyrazin-2-yl)-urea hydrochloride] | 0.52 nM | 175 nM | – |
| COc1cc(CCNCC(=O)N2CCOCC2)c(Cl)cc1NC(=O)Nc1cnc(C#N)cn1 [Example 19, 1-{5-Chloro-2-methoxy-4-[2-(2-morpholin-4-yl-2-oxo-ethylamino)-ethyl]-phenyl}-3-(5-cyano-pyrazin-2-yl)-urea hydrochloride] | 1.9 nM | 481 nM | – |
| CC(C)Oc1cc(CCNC(=O)[C@H]2CNCCO2)c(Cl)cc1NC(=O)Nc1cnc(C#N)cn1 [Example 20, (R)-Morpholine-2-carboxylic acid (2-{2-chloro-4-[3-(5-cyano-pyrazin-2-yl)-ureido]-5-isopropoxy-phenyl}-ethyl)-amide hydrochloride] | 7.1 nM | – | – |
| COc1cc(CCNC[C@H]2CN(C(=O)C3CC3)CCO2)ccc1NC(=O)Nc1cnc(C#N)cn1 [Example 21, 1-(5-Cyano-pyrazin-2-yl)-3-(4-{2-[((S)-4-cyclopropanecarbonyl-morpholin-2-ylmethyl)-amino]-ethyl}-2-methoxy-phenyl)-urea hydrochloride] | 10 nM | 3760 nM | – |
| CC(C)Oc1cc(CCNC(=O)CN2CCN(C)CC2)c(Cl)cc1NC(=O)Nc1cnc(C#N)cn1 [Example 22, N-(2-{2-Chloro-4-[3-(5-cyano-pyrazin-2-yl)-ureido]-5-isopropoxy-phenyl}-ethyl)-2-(4-methyl-piperazin-1-yl)-acetamide hydrochloride] | 8.2 nM | 519 nM | – |
| COc1cc(CCN[C@@H](C)CN2CCOCC2)ccc1NC(=O)Nc1cnc(C#N)cn1 [Example 23, 1-(5-Cyano-pyrazin-2-yl)-3-{2-methoxy-4-[2-((S)-1-methyl-2-morpholin-4-yl-ethylamino)-ethyl]-phenyl}-urea hydrochloride] | 19 nM | 4790 nM | – |
| COc1cc(CCN[C@H](C)CN2CCOCC2)c(Cl)cc1NC(=O)Nc1cnc(C#N)cn1 [Example 24, 1-{5-Chloro-2-methoxy-4-[2-((R)-1-methyl-2-morpholin-4-yl-ethylamino)-ethyl]-phenyl}-3-(5-cyano-pyrazin-2-yl)-urea hydrochloride] | 1.1 nM | – | – |
| COc1cc(OCCNCCN2CCOCC2)c(Cl)cc1NC(=O)Nc1cnc(C#N)cn1 [Example 25, 1-{5-Chloro-2-methoxy-4-[2-(2-morpholin-4-yl-ethylamino)-ethoxy]-phenyl}-3-(5-cyano-pyrazin-2-yl)-urea hydrochloride] | 0.61 nM | – | – |
| COc1cc(CCNCC(=O)N2CCN(C)CC2)c(Cl)cc1NC(=O)Nc1cnc(C#N)cn1 [Example 26, 1-(5-Chloro-2-methoxy-4-{2-[2-(4-methyl-piperazin-1-yl)-2-oxo-ethylamino]-ethyl}-phenyl)-3-(5-cyano-pyrazin-2-yl)-urea hydrochloride] | 0.58 nM | 800 nM | – |
| CC(C)Oc1cc(CCNCC(=O)N2CCOCC2)c(Cl)cc1NC(=O)Nc1cnc(C#N)cn1 [Example 27, 1-{5-Chloro-2-isopropoxy-4-[2-(2-morpholin-4-yl-2-oxo-ethylamino)-ethyl]-phenyl}-3-(5-cyano-pyrazin-2-yl)-urea hydrochloride] | 0.21 nM | 135 nM | – |
| COc1cc(CCN[C@@H](C)C(=O)N2CCOCC2)c(Cl)cc1NC(=O)Nc1cnc(C#N)cn1 [Example 28, 1-{5-Chloro-2-methoxy-4-[2-((S)-1-methyl-2-morpholin-4-yl-2-oxo-ethylamino)-ethyl]-phenyl}-3-(5-cyano-pyrazin-2-yl)-urea hydrochloride] | 0.48 nM | 390 nM | – |
| CC(C)Oc1cc(CCN[C@@H](C)C(=O)N2CCOCC2)ccc1NC(=O)Nc1cnc(C#N)cn1 [Example 30, 1-(5-Cyano-pyrazin-2-yl)-3-{2-isopropoxy-4-[2-((S)-1-methyl-2-morpholin-4-yl-2-oxo-ethylamino)-ethyl]-phenyl}-urea hydrochloride] | 2.9 nM | – | – |
